In patent publication US12173018B2, “Penicillin-binding protein inhibitors” (priority 2018, dated 2024):
Read-outs that look alike come from different tables or passages of the source.

Tests used:
K. pneumoniae 848844 = assay: microbe, parasite or virus in culture; assay type: cell-based, Klebsiella pneumoniae; details: Klebsiella pneumoniae; K. pneumoniae 848844 producing SHV-11 and KPC-2; read-out: MIC K. pneumoniae 848844
Method in brief: (§1)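 Colonies from Mueller Hinton II agar were grown 3-5 hours at 37° C in cation-supplemented broth, adjusted by OD600, then added to 2-fold compound dilutions at 5×10^5 CFU/mL. After 16-20 hours at 37° C, MICs were scored visually.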

A. baumannii ATCC 19606 = assay: Broth microdilution MIC, A. baumannii ATCC 19606; assay type: cell-based; details: Acinetobacter baumannii, ATCC19606; A. baumannii ATCC 19606, broth microdilution; read-out: MIC A. baumannii ATCC 19606
Procedure: (§2) To determine the ability of test compounds to potentiate the inhibition of the growth of bacterial strains, classic cell based broth microdilution minimum inhibitory concentration (MIC) assays were employed. MIC assays are performed according to CLSI methods except where otherwise noted (CLSI, 2011 and CLSI, 2009). The reference type strain E. coli ATCC 25922, the wild-type parent strain E. coli AG100, the hyper-permeable E. coli 901C and E. coli D22 and the E. coli AG100A strain lacking the acrAB efflux pump encoding genes were used to determine the ability of the PBP inhibitors to penetrate the outer membrane of gram-negative bacteria and inhibit bacterial growth. […] The P. aeruginosa PAO1, P. aeruginosa ATCC 27853 and A. baumannii ATCC 19606, along with the hyper-permeable P. aeruginosa ATCC 35151 and an engineered efflux pump-compromised strain of P. aeruginosa (ΔmexAB-oprM) were used to determine the ability of PBP inhibitors to penetrate the outer membrane of P. aeruginosa and A. baumannii and assess antibacterial activity against these important gram-negative organisms.
(§3) Briefly, cryo-preserved bacterial cultures of challenge strains are streaked for isolation on appropriate agar medium, in this case Mueller Hinton II agar. Following incubation to allow growth of the colonies, plates are sealed with parafilm and stored refrigerated for up to two weeks. For preparation of assay inoculum and to ensure low variability, at least 5 colonies are picked from the agar plates with an inoculating loop and aseptically transferred to a culture tube containing 3 mL of Mueller-Hinton Broth (supplemented with divalent cations to required levels based on Manufacturers' certification). The broth culture is grown for 3-5 hours at 37° C. with shaking at 200 rpm. Meanwhile, 2-fold serial dilutions of test compounds are conducted in a 96 well plate with a final volume of 75 μL per well at 2-fold the final desired concentration. After the dilution plates are set up the growing cultures are then diluted in a cuvette containing MH II broth and the optical density is measured at 600 nm. The Inoculum is diluted such that 75 μL of this culture in Mueller-Hinton Broth results in a starting bacterial concentration of 5×10^5 CFU/mL when added to the dilution plates. The plates are incubated for 16-20 hours at 37° C. The MIC values are read visually as the lowest concentration well with no bacterial growth.

P. aeruginosa PAO1 = assay: Broth microdilution MIC, P. aeruginosa PAO1; assay type: cell-based; details: Pseudomonas aeruginosa; P. aeruginosa PAO1, broth microdilution; read-out: MIC P. aeruginosa PAO1
Procedure: as §2, §3

E. coli ATCC 25922 = assay: Broth microdilution MIC, E. coli ATCC 25922; assay type: cell-based; details: Escherichia coli, ATCC25922; E. coli ATCC 25922, broth microdilution; read-out: MIC E. coli 25922
Method in brief: as §1

E. coli PBP3 = E. coli PBP3 (Escherichia coli (strain K12), UniProt P0AD68); assay: E. coli PBP3 Bocillin-FL fluorescence polarization competition binding assay
E. coli PBP3, sequence (P0AD68 whole entry): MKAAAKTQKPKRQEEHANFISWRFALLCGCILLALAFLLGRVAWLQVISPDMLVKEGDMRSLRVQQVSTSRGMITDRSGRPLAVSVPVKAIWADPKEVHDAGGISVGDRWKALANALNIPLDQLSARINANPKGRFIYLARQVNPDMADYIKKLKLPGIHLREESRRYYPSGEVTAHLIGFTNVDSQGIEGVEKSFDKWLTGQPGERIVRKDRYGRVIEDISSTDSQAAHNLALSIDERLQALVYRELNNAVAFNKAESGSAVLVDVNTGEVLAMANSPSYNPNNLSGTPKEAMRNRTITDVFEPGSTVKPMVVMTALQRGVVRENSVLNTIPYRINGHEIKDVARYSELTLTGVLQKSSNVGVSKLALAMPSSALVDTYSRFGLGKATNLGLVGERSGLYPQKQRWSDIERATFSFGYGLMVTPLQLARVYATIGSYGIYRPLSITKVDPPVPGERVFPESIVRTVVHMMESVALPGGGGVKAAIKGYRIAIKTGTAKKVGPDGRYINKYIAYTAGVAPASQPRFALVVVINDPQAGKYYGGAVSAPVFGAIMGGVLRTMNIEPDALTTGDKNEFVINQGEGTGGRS
Method in brief: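 FP competition: 1.5 μM PBP, 0.1 μM Bocillin-FL, cpd 0–1000 μM; 50 mM Hepes pH 8.0/300 mM NaCl/5% glycerol. Read 490/520 nm immediately after Bocillin-FL addition, 60 min. EC50 = cpd conc. lowering probe binding.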

K. pneumoniae UMM = assay: microbe, parasite or virus in culture; assay type: cell-based; details: Klebsiella pneumoniae; K. pneumoniae UMM producing SHV-5 and KPC-2; read-out: MIC K. pneumoniae UMM
Method in brief: as §1

[1] = system: P. aeruginosa (ΔmexAB-oprM); assay: microbe, parasite or virus in culture; assay type: cell-based; details: Pseudomonas aeruginosa, read-out: MIC P. aeruginosa ΔmexAB-OprM
Method in brief: as §1

E. coli AG100A = assay: microbe, parasite or virus in culture; assay type: cell-based; details: Escherichia coli, read-out: MIC E. coli AG100A
Method in brief: as §1

E. coli 901C = assay: microbe, parasite or virus in culture; assay type: cell-based; details: Escherichia coli; hyper-permeable E. coli 901C, broth microdilution; read-out: MIC E. coli 901C
Method in brief: as §1

E. coli D22 = assay: microbe, parasite or virus in culture; assay type: cell-based; details: Escherichia coli; hyper-permeable E. coli D22, broth microdilution; read-out: MIC E. coli D22
Method in brief: as §1

P. aeruginosa ATCC 35151 = assay: microbe, parasite or virus in culture; assay type: cell-based; details: Pseudomonas aeruginosa, ATCC35151; hyper-permeable P. aeruginosa ATCC 35151; read-out: MIC P. aeruginosa ATCC 35151
Method in brief: as §1

K. pneumoniae SI-117 = assay: microbe, parasite or virus in culture; assay type: cell-based; details: Klebsiella pneumoniae, SI117, read-out: MIC K. pneumoniae SI-117
Method in brief: as §1

E. coli AG100 = assay: Broth microdilution MIC, E. coli AG100 (wild-type parent); assay type: cell-based; details: Escherichia coli; wild-type parent E. coli AG100, broth microdilution; read-out: MIC E. coli AG100
Method in brief: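 Starting inoculum of 5×10^5 CFU/mL, from colonies grown 3-5 h in Mueller-Hinton broth with divalent cations, added to two-fold compound dilution series.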

Structure (SMILES)	MIC (K. pneumoniae 848844)	MIC (A. baumannii ATCC 19606)	MIC (P. aeruginosa PAO1)	MIC (E. coli ATCC 25922)	EC50 (E. coli PBP3)	MIC (K. pneumoniae UMM)	MIC [1]	MIC (E. coli AG100A)	MIC (E. coli 901C)	MIC (E. coli D22)	MIC (P. aeruginosa ATCC 35151)	MIC (K. pneumoniae SI-117)	MIC (E. coli AG100)	EC50 (E. coli PBP3; fluorescence polarization competition binding with Bocillin-FL, read-out: E. coli K12 PBP3 Potency)
CCN1CCN(C(=O)NC(C(=O)N[C@H]2Cc3c(F)cc(F)c(C(=O)O)c3OB2O)c2ccc(O)c(O)c2Cl)C(=O)C1=O (stereo partly drawn) [Example 185, (3R)-3-(2-(2-chloro-3,4-dihydroxyphenyl)-2-(4-ethyl-2,3-dioxopiperazine-1-carboxamido)acetamido)-5,7-difluoro-2-hydroxy-3,4-dihydro-2H-benzo[e][1,2]oxaborinine-8-carboxylic acid]	0.5 to 1 µg/mL	> 128 µg/mL	> 128 µg/mL	8 to 16 µg/mL	30 to 500 µM	2 to 4 µg/mL	0.5 to 1 µg/mL	2 to 4 µg/mL	0.5 to 1 µg/mL	2 to 4 µg/mL	< 0.25 µg/mL	2 to 4 µg/mL	2 to 4 µg/mL	–
CCN1CCN(C(=O)NC(C(=O)N[C@H]2Cc3cccc(C(=O)O)c3OB2O)c2ccc(S(N)(=O)=O)cc2F)C(=O)C1=O (stereo partly drawn) [Example 203, (3R)-3-(2-(4-ethyl-2,3-dioxopiperazine-1-carboxamido)-2-(2-fluoro-4-sulfamoylphenyl)acetamido)-2-hydroxy-3,4-dihydro-2H-benzo[e][1,2]oxaborinine-8-carboxylic acid]	> 128 µg/mL	> 128 µg/mL	> 128 µg/mL	32 to 64 µg/mL	–	32 to 64 µg/mL	8 to 16 µg/mL	2 to 4 µg/mL	< 0.25 µg/mL	2 to 4 µg/mL	0.5 to 1 µg/mL	> 128 µg/mL	32 to 64 µg/mL	< 30 µM
O=C(O)c1cccc2c1OB(O)[C@@H](NC(=O)C(NC(=O)N1C[C@@H]3CCCN3C(=O)C1=O)c1ccc(O)c(O)c1Cl)C2 (stereo partly drawn) [Example 222, (3R)-3-(2-(2-chloro-3,4-dihydroxyphenyl)-2-((S)-3,4-dioxooctahydropyrrolo[1,2-a]pyrazine-2-carboxamido)acetamido)-2-hydroxy-3,4-dihydro-2H-benzo[e][1,2]oxaborinine-8-carboxylic acid]	> 128 µg/mL	32 to 64 µg/mL	8 to 16 µg/mL	> 128 µg/mL	30 to 500 µM	32 to 64 µg/mL	< 0.25 µg/mL	32 to 64 µg/mL	32 to 64 µg/mL	> 128 µg/mL	< 0.25 µg/mL	> 128 µg/mL	32 to 64 µg/mL	–
NCCN1CCN(C(=O)N[C@H](C(=O)N[C@H]2Cc3ccc(F)c(C(=O)O)c3OB2O)c2ncc(O)cc2F)C(=O)C1=O [Example 231, (R)-3-((S)-2-(4-(2-aminoethyl)-2,3-dioxopiperazine-1-carboxamido)-2-(3-fluoro-5-hydroxypyridin-2-yl)acetamido)-7-fluoro-2-hydroxy-3,4-dihydro-2H-benzo[e][1,2]oxaborinine-8-carboxylic acid]	32 to 64 µg/mL	> 128 µg/mL	> 128 µg/mL	32 to 64 µg/mL	30 to 500 µM	32 to 64 µg/mL	8 to 16 µg/mL	8 to 16 µg/mL	2 to 4 µg/mL	8 to 16 µg/mL	0.5 to 1 µg/mL	32 to 64 µg/mL	32 to 64 µg/mL	–
